Consider seven compounds from patent US9487511B2, “Cyclopropanamine compound and use thereof” (Takeda Pharmaceutical Company Limited, priority 2014, dated 2016).

Structures can show the parent of a compound that is named as a salt. Where two headings read alike, the source gives them in different places.

A short description of series [1]: Evaluation of blood cell number in mouse. The series is classed as in vivo. The conditions noted are these: male ICR mice, oral, repeated 7 or 9 days. How it is done:
All compounds were repeatedly administered to the mice at a dose of 1 mg/kg, 10 mg/kg or 100 mg/kg (body weight) for 7 or 9 days. One day after the final administration of the compound, the whole blood was collected.
Using Sysmex XT-1800i (Sysmex Corporation), the white blood cell number, red blood cell number, and platelet number in the collected whole blood per unit volume were measured. The influence of each compound on each blood cell number was determined by calculating the number with the mean of each blood cell number of the mouse without administration of the compound (0 mg/kg group), and the mean of each blood cell number in the whole blood of a mouse with the administration of the compound.

Series [2] is described as follows: Evaluation of hippocampal distribution in mouse. The series is classed as in vivo. The conditions noted are these: male ICR mice, 10 mg/kg oral; for concentration at 0.5 h: 0.5 h after administration.
[3] abbreviates: male, ICR, mouse, hippocampus, po, 10 mg/kg, 1 h after administration, read-out: Concentration Hippocampus, Mean.
Setting [4] is: male, ICR, mouse, plasma, po, 10 mg/kg, 1 h after administration, read-out: Concentration Plasma, Mean.
The mark [5] stands for this setting: 1 h after administration, sulfate.

As for `O=C(NC1CCOCC1)c1csc([C@@H]2C[C@H]2NCC2CC2)c1` [Example 71, 5-((1R,2R)-2-((cyclopropylmethyl)amino)cyclopropyl)-N-(tetrahydro-2H-pyran-4-yl)thiophene-3-carboxamide hydrochloride], the figures for the “Platelets, Mean” value in series [1] (1 mg/kg), in series [1] (10 mg/kg) and in series [1] (100 mg/kg) were 1178 10^3 cells, 1197 10^3 cells and 1322 10^3 cells, respectively. For the same compound, the “Red blood cells, Mean” value in series [1] (1 mg/kg) is on record as 873 10^4 cells; in series [1] (10 mg/kg), 817 10^4 cells; in series [1] (100 mg/kg) it was 853 10^4 cells. Besides, the “White blood cells, Mean” value was 275 10 cells in series [1] (1 mg/kg), 276 10 cells in series [1] (10 mg/kg) and 323 10 cells in series [1] (100 mg/kg). Further, the values for the concentration at 1 h in series [2] (setting [3]) and in series [2] (setting [4]) were 82 ng/g and 0.229 µg/mL, respectively.
For `Cc1nnc(NC(=O)c2cc([C@@H]3C[C@H]3NCC3CC3)cs2)s1` [Example 82, 4-((1S,2R)-2-((cyclopropylmethyl)amino)cyclopropyl)-N-(5-methyl-1,3,4-thiadiazol-2-yl)thiophene-2-carboxamide dihydrochloride], the “Platelets, Mean” value in series [1] (1 mg/kg) was 1399 10^3 cells; in series [1] (10 mg/kg) it was 1445 10^3 cells; in series [1] (100 mg/kg) it was 1411 10^3 cells. Also, the “Red blood cells, Mean” value is 899 10^4 cells in series [1] (1 mg/kg), 926 10^4 cells in series [1] (10 mg/kg) and 903 10^4 cells in series [1] (100 mg/kg). Further, the “White blood cells, Mean” value in series [1] (1 mg/kg) is recorded as 403 10 cells; in series [1] (10 mg/kg) it was 424 10 cells; in series [1] (100 mg/kg) it was 329 10 cells. Further, the figures for the concentration at 1 h in series [2] (setting [3]) and in series [2] (setting [4]) were 170 ng/g and 1.33 µg/mL, respectively.
Turning to `Cc1nnc(NC(=O)c2cc([C@@H]3C[C@H]3NC3CCC3)cs2)s1` [Example 84, 4-((1S,2R)-2-(cyclobutylamino)cyclopropyl)-N-(5-methyl-1,3,4-thiadiazol-2-yl)thiophene-2-carboxamide dihydrochloride], the “Platelets, Mean” value in series [1] (1 mg/kg, dihydrochloride) is 1533 10^3 cells; in series [1] (10 mg/kg, dihydrochloride) it was 1627 10^3 cells; in series [1] (100 mg/kg, dihydrochloride), 1665 10^3 cells. The “Red blood cells, Mean” value in series [1] (1 mg/kg, dihydrochloride) was 910 10^4 cells; in series [1] (10 mg/kg, dihydrochloride) it was 880 10^4 cells; in series [1] (100 mg/kg, dihydrochloride) it was 900 10^4 cells. Besides, the “White blood cells, Mean” value in series [1] (1 mg/kg, dihydrochloride) is 370 10 cells; in series [1] (10 mg/kg, dihydrochloride), 339 10 cells; in series [1] (100 mg/kg, dihydrochloride), 313 10 cells. The figures for the concentration at 1 h in series [2] (setting [3]) and in series [2] (setting [4]) were 177 ng/g and 0.523 µg/mL, respectively. For the same compound, the Kp at 1 h in series [2] (male, ICR, mouse, hippocampus/plasma, po, 10 mg/kg, 1 h after administration, read-out: Ratio (hippocampus/plasma), Mean) worked out at 0.339.
As to `Cc1nnc(NC(=O)c2cc([C@@H]3C[C@H]3NCC3CCOCC3)c(C)s2)s1` [Example 97, 5-methyl-N-(5-methyl-1,3,4-thiadiazol-2-yl)-4-((1S,2R)-2-((tetrahydro-2H-pyran-4-ylmethyl)amino)cyclopropyl)thiophene-2-carboxamide hydrochloride], the “Platelets, Mean” value was 1462 10^3 cells in series [1] (1 mg/kg), 1483 10^3 cells in series [1] (10 mg/kg) and 1533 10^3 cells in series [1] (100 mg/kg). The “Red blood cells, Mean” value in series [1] (1 mg/kg) is 902 10^4 cells; in series [1] (10 mg/kg) it was 890 10^4 cells; in series [1] (100 mg/kg), 929 10^4 cells. In addition, the “White blood cells, Mean” value in series [1] (1 mg/kg) was 377 10 cells; in series [1] (10 mg/kg), 366 10 cells; in series [1] (100 mg/kg), 332 10 cells. Moreover, the concentration at 1 h in series [2] (setting [3]) amounted to 194 ng/g; in series [2] (setting [4]), 0.978 µg/mL.
Consider `Cc1nnc(NC(=O)c2cc([C@@H]3C[C@H]3NC3CCC3)c(C)s2)s1` [Example 99, 4-((1S,2R)-2-(cyclobutylamino)cyclopropyl)-5-methyl-N-(5-methyl-1,3,4-thiadiazol-2-yl)thiophene-2-carboxamide hydrochloride], for which the “Platelets, Mean” value in series [1] (1 mg/kg) was 1442 10^3 cells; in series [1] (10 mg/kg), 1380 10^3 cells; in series [1] (100 mg/kg) it was 1519 10^3 cells. Further, the “Red blood cells, Mean” value in series [1] (1 mg/kg) is on record as 892 10^4 cells; in series [1] (10 mg/kg) it was 915 10^4 cells; in series [1] (100 mg/kg), 876 10^4 cells. Besides, the “White blood cells, Mean” value was 399 10 cells in series [1] (1 mg/kg), 378 10 cells in series [1] (10 mg/kg) and 347 10 cells in series [1] (100 mg/kg). The concentration at 1 h in series [2] (setting [3]) stood at 640 ng/g; in series [2] (setting [4]) it was 2.95 µg/mL.
As for `Cc1nnc(NC(=O)c2cc([C@@H]3C[C@H]3NC3CCC3)cs2)s1` [Example 118, 4-((1S,2R)-2-(cyclobutylamino)cyclopropyl)-N-(5-methyl-1,3,4-thiadiazol-2-yl)thiophene-2-carboxamide sulfate], in series [1] (1 mg/kg, sulfate), the “Platelets, Mean” value is reported as 1051 10^3 cells; the “Red blood cells, Mean” value was 853 10^4 cells; the “White blood cells, Mean” value is recorded as 299 10 cells. Moreover, in series [1] (10 mg/kg, sulfate), the “Platelets, Mean” value is 1158 10^3 cells; the “Red blood cells, Mean” value was 907 10^4 cells; the “White blood cells, Mean” value is 312 10 cells. In series [1] (100 mg/kg, sulfate), the “Platelets, Mean” value is 1176 10^3 cells; the “Red blood cells, Mean” value is on record as 881 10^4 cells; the “White blood cells, Mean” value is listed as 245 10 cells. Besides, in series [2] (setting [5]), the “Concentration Hippocampus, Mean” value was 0.151 µg/g and the “Concentration Plasma, Mean” value worked out at 0.405 µg/mL.
On to `Cc1sc(C(=O)Nc2cnn(C)c2)cc1[C@@H]1C[C@H]1NC1CCC1` [Example 123, 4-((1S,2R)-2-(cyclobutylamino)cyclopropyl)-5-methyl-N-(1-methyl-1H-pyrazol-4-yl)thiophene-2-carboxamide hydrochloride], for which the “Platelets, Mean” value was 1086 10^3 cells in series [1] (1 mg/kg, hydrochloride); 1234 10^3 cells in series [1] (10 mg/kg, hydrochloride); 1333 10^3 cells in series [1] (100 mg/kg). Also, the “Red blood cells, Mean” value is on record as 846 10^4 cells in series [1] (1 mg/kg, hydrochloride); 854 10^4 cells in series [1] (10 mg/kg, hydrochloride); 866 10^4 cells in series [1] (100 mg/kg). For the same compound, the “White blood cells, Mean” value in series [1] (1 mg/kg, hydrochloride) is 390 10 cells; in series [1] (10 mg/kg, hydrochloride), 368 10 cells; in series [1] (100 mg/kg) it was 380 10 cells. For the same compound, the concentration at 0.5 h in series [2] (male, ICR, mouse, hippocampus, po, 10 mg/kg, read-out: Concentration Hippocampus, Mean) stood at 369 ng/g; in series [2] (male, ICR, mouse, plasma, po, 10 mg/kg, read-out: Concentration Plasma, Mean) it was 1.11 µg/mL.
